This assay deals with Mycobacterium tuberculosis non-replicating, growth inhibition. The experiment in a line: growth inhibition of non-replicating M. tuberculosis (AID 488890).

Records with an inconclusive call do not appear. Activity calls are given as the source filed them. No rule for the calls is given here.

The IC50 is the point on the concentration scale where inhibition reaches its midpoint.

As for `CC(C)(C)OC(=O)N/N=C\c1ccc(OC(=O)c2ccco2)cc1`, the IC50 was 12.6 µM (inactive).

As to `O=C(CCN1CCCCCC1)c1ccccc1`, the IC50 is 9.1 µM.

On to `O=C1C=CC(=O)N1N(c1ccccc1)c1ccccc1`, for which the IC50 was 8.68 µM.

On to `Cc1cc(N2CCCCC2)nc(NCc2ccccc2)n1`, for which the IC50 was 8.38 µM.

Take `Cc1ccc(CNC(=O)c2cnccn2)cc1`: the IC50 is 1.36 µM.

With `CC(NC(=O)c1cc2cc(Br)ccc2oc1=N)c1ccccc1` (centres undefined), the IC50 is 6.97 µM.

In the case of `COC(=O)c1cccc(COC(=O)c2cc3ccccc3oc2=O)c1`, the IC50 was 11.7 µM (inactive).

For `CSC1=NSC2=NC(=O)/C(=C\c3cccs3)C(=N)N12`, the IC50 was 4.51 µM.

Consider `COCCn1c(C)cc(C(=O)COC(=O)c2ccc([N+](=O)[O-])o2)c1C`, for which the IC50 was 2.79 µM.

As for `CCCOc1ccc(C(=O)NNC(=S)NC(=O)c2ccco2)cc1`, the IC50 was 3.83 µM.

For the molecule `CCC(CC)COC(=O)C(C#N)c1nc2ccccc2nc1N1CCN(CC)CC1` (centres undefined), the IC50 was 15.4 µM (inactive).

For `COc1cccc(NC(=O)c2cc3ccccc3oc2=O)c1`, the IC50 is 15.2 µM (inactive).

As for `CCOC(=O)c1c(C)[nH]c(C)c1C(=O)COC(=O)c1ccc([N+](=O)[O-])s1`, the IC50 is 1.65 µM.

With `CCOC(=O)c1cc(COc2cc(Cl)cc(Cl)c2)on1`, the IC50 was 0.59 µM.

For the molecule `CC1(C)C[C@H]2C=C(C=O)[C@]3(C=O)C[C@]3(C)[C@H]2C1`, the IC50 is 2.94 µM.

For `Cc1ccc(NC(=O)c2noc(C(C)C)c2[N+](=O)[O-])cc1`, the IC50 was 19.3 µM (inactive).

On to `Cn1c(-c2cccc([N+](=O)[O-])c2)cnc1NCc1cccc(F)c1`, for which the IC50 was 29.3 µM (inactive).

Turning to `Cc1ccc(/C=C2/C(=O)NC(=O)N(CCc3ccc(F)cc3)C2=O)s1`, the IC50 was 16.7 µM (inactive).

As for `CN(C)/C=C1/C(=O)N(c2ccc([N+](=O)[O-])cc2)N=C1c1ccccc1`, the IC50 is 17.7 µM (inactive).

With `CCOc1cccc2cc(C(=O)NCc3ccccc3)c(=N)oc12`, the IC50 was 10.2 µM (inactive).

For `O=C(Nc1ccc(N2CCN(C(=O)c3cccs3)CC2)cc1)c1ccc([N+](=O)[O-])o1`, the IC50 was 0.35 µM.

For the molecule `CC(C)(C)OC(=O)N/N=C\c1ccc([N+](=O)[O-])s1`, the IC50 is 13.6 µM (inactive).

Turning to `O=C(c1ccc(Cl)cc1)N1N=C(c2ccccn2)CC1(O)C(F)(F)F` (centres undefined), the IC50 is 5.51 µM.

For the molecule `Nc1c(C(=O)NC2CCCCC2)nsc1C(=O)OCC(=O)NC1CCCCC1`, the IC50 was 3.27 µM.

Turning to `CCOC(=O)c1cc(-c2csc(COc3ccccc3)n2)on1`, the IC50 was less than 0.1 µM.

Take `O=C(NCC(c1cccs1)N1CCOCC1)c1cc([N+](=O)[O-])cc([N+](=O)[O-])c1` (centres undefined): the IC50 is 2.96 µM.

Regarding `CCOC(=O)COc1ccc(C(=O)NC2CCCCC2)cc1`, the IC50 is 4.04 µM.

As to `COc1ccc(C(=O)COC(=O)COc2ccc(C)c(C)c2)cc1`, the IC50 is 20.7 µM (inactive).

For the molecule `CCN1CCN(c2ccc(S(=O)(=O)N3CCCCC3)cc2NC(=O)c2ccc([N+](=O)[O-])o2)CC1`, the IC50 was 12.6 µM (inactive).

Consider `O=C(Nc1cccc(S(=O)(=O)N2CCCCC2)c1)c1ccc([N+](=O)[O-])o1`, for which the IC50 was 4.07 µM.

For `COc1ccc(C(=O)CC(=O)C(=O)NCCc2cccc(C)c2)cc1`, the IC50 was 4.42 µM.

Consider `O=C(COC(=O)c1ccc(Br)o1)Nc1ncc([N+](=O)[O-])s1`, for which the IC50 was 14.4 µM (inactive).

As for `Cc1cccc(CSc2nnc(-c3ccco3)o2)c1`, the IC50 is 0.67 µM.

With `Cc1c(Cl)cccc1NC(=O)C(=O)NNC(=O)c1ccccc1F`, the IC50 was 1.59 µM.

For the molecule `COc1ccc(C(=O)CCN2CCCCCC2)cc1`, the IC50 is 2.05 µM.

On to `Cc1nc([N+](=O)[O-])c(Br)n1Cc1ccccc1`, for which the IC50 is 14.1 µM (inactive).

For the molecule `O=C(COC(=O)CCc1c[nH]c2ccccc12)Nc1cc([N+](=O)[O-])ccc1Cl`, the IC50 was 3.17 µM.

Turning to `CCOC(=O)Cn1cc(C#N)c2cccc(CC)c21`, the IC50 is 9.18 µM.

`O=C(COC(=O)c1cccs1)NCCC1=CCCCC1`: the IC50 was 14.1 µM (inactive).

Consider `O=C(O)c1ccccc1C(=O)NNc1ccc(Cl)cc1`, for which the IC50 is 4.09 µM.

Take `O=C(NC(=S)NNC(=O)[C@H]1C[C@@H]1c1ccccc1)c1cccc(F)c1`: the IC50 is 6.69 µM.

For the molecule `CCOC(=O)CCNC(=O)c1ccc2nc(C3CCCCC3)oc2c1`, the IC50 is 28.8 µM (inactive).

For the molecule `COc1ccc(C(=O)NNC(=S)NC(=O)c2cccc([N+](=O)[O-])c2)cc1`, the IC50 was 11.8 µM (inactive).

Regarding `CC(C)[C@H]1CN=C2N(C[C@H](C)NC(=O)CCC3CCCCC3)[C@H](Cc3ccc(O)cc3)CN21`, the IC50 is 19.3 µM (inactive).

For `O=C(CCNc1ccc(Cl)c(C(F)(F)F)c1)c1ccco1`, the IC50 is 5.63 µM.

Take `Cc1cc(NC(=O)c2sccc2C)n(-c2nc3ccccc3[nH]2)n1`: the concentration for half-maximal inhibition (IC50) is 8.81 µM.

With `Cc1cc(C(=O)COc2cccc3cccnc23)c(C)n1C`, the concentration for half-maximal inhibition (IC50) was 5.1 µM.

With `O=c1cc(-c2ccccc2Cl)oc2c([N+](=O)[O-])c(O)cc(O)c12`, the IC50 was 5.05 µM.

With `Cc1ccsc1C(=O)OCC(=O)Nc1nnc(-c2ccccc2)o1`, the IC50 is 18.2 µM (inactive).

For the molecule `CCOC(=O)c1ccsc1NC(=O)CCS(=O)(=O)c1ccccc1`, the IC50 is 33.8 µM (inactive).

In the case of `CC1CC(C)CN(CCOCCSc2ccc(Cl)cc2)C1` (centres undefined), the IC50 is 30.7 µM (inactive).

In the case of `Nc1ccc2c(c1)oc1ccccc12`, the IC50 was 2.05 µM.

`O=C1CC(N2CCN(c3ccccc3)CC2)C(=O)N1CCc1ccccc1` (centres undefined): the IC50 is 14 µM (inactive).

Take `O=C(N/N=C/c1c(O)ccc2ccccc12)c1ccc(Br)o1`: the 50% inhibitory concentration (IC50) was less than 0.1 µM.

Consider `C/C(=N\Nc1ccc(Cl)cc1)c1ccccn1`, for which the IC50 was 15.9 µM (inactive).

Turning to `O=C(NC(=S)NCCc1ccccc1)c1ccccc1`, the IC50 is 10.4 µM (inactive).

As to `CCOc1ccc(NC(=O)CCNC(=O)c2ccc(Br)cc2)cc1`, the IC50 was 13.8 µM (inactive).

For `COCCSc1nnc(NC(=O)CCS(=O)(=O)Cc2ccccc2)s1`, the IC50 was 5.14 µM.

As for `CC(=O)OCCN(C)c1cc(SC(C)C)c2nonc2c1[N+](=O)[O-]`, the IC50 was 13.7 µM (inactive).

Regarding `CCCCNC(=O)Cc1ccc(C)cc1`, the IC50 is 5.46 µM.

Regarding `Cc1ccc(C(=O)COC(=O)CCc2ccc(S(=O)(=O)N3CCCCC3)cc2)cc1`, the IC50 was 23 µM (inactive).

In the case of `CCOC(=O)c1cc(-c2c(Cl)cccc2Cl)no1`, the IC50 was 2.22 µM.

For the molecule `O=C(NN=C(Cc1ccccc1)Cc1ccccc1)c1ccncc1`, the IC50 was 0.35 µM.

Regarding `COc1ccc2nc(C)cc(N/N=C/c3ccc(F)cc3)c2c1`, the IC50 was 7.75 µM.

For `O=C(O)c1ccc(CN2C(=O)CSC2=S)cc1`, the IC50 is 9 µM.

In the case of `COc1ccc(CNC(=O)c2cc3cccc(O)c3oc2=N)cc1`, the IC50 was 14.3 µM (inactive).

As for `COc1ccc(OC(=O)CCc2c[nH]c3ccccc23)cc1`, the IC50 was 3.37 µM.

Regarding `COc1ccc(C(=O)NCC(=O)N/N=C/c2ccc([N+](=O)[O-])o2)cc1OC`, the IC50 is 4.97 µM.

`CSc1nnc(Cc2ccc3c(c2)OCO3)o1`: the IC50 is 7.56 µM.

For `O=C1c2cccc3c([N+](=O)[O-])ccc(c23)C(=O)N1c1ccccn1`, the IC50 is 4.86 µM.

With `CCCOC(=O)c1ccc(NC(=O)Cc2cccs2)cc1`, the IC50 was 24.1 µM (inactive).

Regarding `COc1ccccc1-c1nnc(Sc2nc([N+](=O)[O-])nn2C)o1`, the IC50 is 8.19 µM.

On to `CCOc1ccc(C(=O)N/N=C/c2cccc3cccnc23)cc1`, for which the IC50 was 4.65 µM.

As for `Cc1ccc(C(=O)N/N=C\c2ccc[nH]2)cn1`, the IC50 was 16.9 µM (inactive).

As for `Cc1ccccc1OCC(O)Cn1c(=N)n(Cc2ccccc2)c2ccccc21` (centres undefined), the IC50 was 7.63 µM.

As to `COC(=O)COc1ccc(-c2ccccc2)cc1C=O`, the IC50 was 8.95 µM.

As for `COc1cc2[nH]c(Cl)c([N+](=O)[O-])c2cc1OC`, the IC50 is 14.1 µM (inactive).

As for `CCOC(=O)c1cc(-c2csc(COc3ccc(Cl)cc3)n2)on1`, the IC50 was 0.13 µM.

For the molecule `O=C(N/N=C\c1ccc([N+](=O)[O-])s1)C1COc2ccccc2O1` (centres undefined), the IC50 is 4.94 µM.

Consider `Cc1cc(Cl)ccc1OCCCC(=O)NO`, for which the IC50 was 14.6 µM (inactive).

Regarding `CCCc1cc(NCCCn2ccnc2)n2nc(C)c(-c3ccccc3)c2n1`, the IC50 was 19.5 µM (inactive).

On to `CC(=O)Oc1ccc(/C=C2\N=C(C3CCCCC3)OC2=O)cc1`, for which the half-maximal inhibitory concentration (IC50) was 9.08 µM.

In the case of `CN(C)S(=O)(=O)c1ccc(C(=O)Oc2ccccc2)cc1`, the IC50 was 2.41 µM.

As to `CC(=O)c1ccc(C(=O)Nc2nnc(-c3ccc(Cl)cc3)o2)cc1`, the IC50 is 4.03 µM.

Consider `Clc1cccc2c1Sc1ccccc1CC2N1CCNCC1` (centres undefined), for which the IC50 was 5.98 µM.

Regarding `CCOc1ccccc1C(=O)OCC(=O)Nc1nnc(-c2ccccc2)o1`, the IC50 is 21.7 µM (inactive).

For the molecule `CCN1CCN(c2ccc(S(=O)(=O)N3CCCCC3)cc2NC(=O)c2ccc([N+](=O)[O-])s2)CC1`, the 50% inhibitory concentration (IC50) is 7.39 µM.

Turning to `O=C(N/N=C/c1coc2ccccc2c1=O)c1ccc(Cl)cc1`, the IC50 was 0.97 µM.

On to `CO/N=C/CC(=O)c1ccc(OC)cc1`, for which the IC50 was 30.5 µM (inactive).

Consider `C/C(=N\NC(=O)c1ccccc1OCc1ccc(F)cc1)c1ccccn1`, for which the IC50 is 2.82 µM.

Turning to `Cc1ccc(C(=O)C=CNNC(=O)c2ccccc2)cc1`, the IC50 was 2.15 µM.

`O=C(Nc1ccc(Br)cc1)c1cc([N+](=O)[O-])cc([N+](=O)[O-])c1`: the IC50 was 2.63 µM.

For `COc1ccc(OC(=O)c2cc3ccccc3o2)cc1`, the IC50 was 18.4 µM (inactive).

Consider `CC(C)(C)OC(=O)NCCc1nnc(S(=O)(=O)Cc2ccc(Cl)cc2Cl)o1`, for which the concentration for half-maximal inhibition (IC50) was 4.85 µM.

Turning to `Cc1c([N+](=O)[O-])cnc(Sc2ccccc2)c1[N+](=O)[O-]`, the IC50 was 6.43 µM.

As for `O=[N+]([O-])c1cncc([N+](=O)[O-])c1Nc1cccc(O)c1`, the IC50 is 22.3 µM (inactive).

Consider `Cc1ccnc(NC(=O)COc2ccc3c(c2)CCC3)c1`, for which the 50% inhibitory concentration (IC50) was 1.7 µM.

Regarding `Cc1ccn2nc(S(=O)(=O)Nc3c(F)cccc3F)nc2n1`, the IC50 was 17.5 µM (inactive).

As for `COc1ccccc1CCNC(=O)c1ccc(C)o1`, the IC50 is 2.96 µM.

These data come from PubChem BioAssay AID488890 (Southern Research Specialized Biocontainment Screening …, 2010).
